For orientation: inhibition means the share of the control response that was lost under treatment. Lower therefore signals little suppression. Broadly, the ED50 is the dose that gives a 50% effect, or the effect in half of the subjects.

Here are results for five compounds from patent US8785425B2, “11β-hydroxyandrosta-4-ene-3-ones” (Sun Pharma Advanced Research Company Ltd., priority 2006, dated 2014).

For series [1], the target named is T1, glucocorticoid receptors (Homo sapiens, UniProt P04150).
T1 construct: host or cells: Human HeLa cells
T1 sequence (P04150 1-777): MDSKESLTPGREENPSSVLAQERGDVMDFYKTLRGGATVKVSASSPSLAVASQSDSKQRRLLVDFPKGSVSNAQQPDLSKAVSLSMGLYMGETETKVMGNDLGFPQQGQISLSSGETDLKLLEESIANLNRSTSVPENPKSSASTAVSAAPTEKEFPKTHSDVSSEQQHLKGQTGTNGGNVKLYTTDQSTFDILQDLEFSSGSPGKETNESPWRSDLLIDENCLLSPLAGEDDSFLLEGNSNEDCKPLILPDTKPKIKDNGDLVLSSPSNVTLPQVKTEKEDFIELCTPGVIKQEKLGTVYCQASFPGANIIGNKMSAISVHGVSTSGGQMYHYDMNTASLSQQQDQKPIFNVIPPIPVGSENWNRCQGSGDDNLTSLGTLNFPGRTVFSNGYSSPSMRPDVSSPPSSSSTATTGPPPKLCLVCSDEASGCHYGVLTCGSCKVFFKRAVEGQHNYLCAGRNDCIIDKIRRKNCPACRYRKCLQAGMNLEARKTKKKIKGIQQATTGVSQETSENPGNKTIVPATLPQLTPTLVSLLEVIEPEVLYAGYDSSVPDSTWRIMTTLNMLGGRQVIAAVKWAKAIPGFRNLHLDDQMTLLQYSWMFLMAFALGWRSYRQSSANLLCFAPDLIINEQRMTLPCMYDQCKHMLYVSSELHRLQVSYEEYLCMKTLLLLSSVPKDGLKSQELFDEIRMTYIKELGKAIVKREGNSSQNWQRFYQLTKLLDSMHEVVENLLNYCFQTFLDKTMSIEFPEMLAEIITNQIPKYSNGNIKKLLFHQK
The experiment in a line: Glucocorticoid receptor binding assay ([3H]dexamethasone radioligand). The settings on record: HeLa cells transfected with glucocorticoid receptors; for inhibition at 0.1 µM: % inhibition at 100 nM. How it is done: The steroid receptor binding assay were performed by MDS Pharma Services at their Taipei (Taiwan) pharmacology laboratory.
The activity of test compounds on glucocorticoid receptor was assessed using radioligand binding assays. […] Free [^3H]dexamethasone was removed from the medium by centrifugation and concentration of receptor bound ligand was determined in the supernatant by liquid scintillation counting.
The % inhibition was evaluated using a single concentration of test compound and the corresponding radiolabeled ligand. Results are presented as the percent inhibition of specific binding. The values are average of duplicate determinations for each concentration.

The test system of series [2] is liver glycogen deposition. The series is classed as in vivo, Male Sprague Dawley rats. The settings on record: 3 mg/kg intratracheally, 2 doses 24 hrs apart, adrenalectomized rats. How it is done: Male Sprague Dawley rats, weighing 190-220 g were bilaterally adrenalectomized and maintained on 0.9% saline solution throughout the experiment. On day 5th and 6th of adrenalectomy, animals were made into different groups, test compounds prepared in cold saline (sonicated for 30 min) were instilled intratracheally 2 doses@3 mg/kg, 24 hrs apart. At 15 hrs after the last treatment, animals were sacrificed and livers were excised and weighed. The glycogen content of the livers was determined by anthrone method. Briefly, a weighed quantity of liver tissue was homogenized with 5% trichloroacetic acid, supernatant mixed with ethanol and kept overnight for precipitation. The glycogen thus extracted was estimated as glucose generated after acid hydrolysis by addition of anthrone reagent at 620 nm. Glycogen content was expressed as mg/100 g liver.

Series [3] concerns Sephadex induced lung edema. As to the kind of experiment: animal or person. How it is done:
(§1) Sephadex G-200 was prepared in sterile saline (10 mg/ml) and allowed to swell for at least 3 days at room temperature. Test compounds were prepared as suspensions by grinding and sonicating the solid in chilled saline. All the compounds were administered intratracheally at 24 hrs and 2 hrs prior to intratracheal administration of Sephadex (5 mg/kg) under light ether anesthesia. Vehicle control animals were administered vehicle instead of Sephadex. At 24 hr after Sephadex instillation, lung and thymus were excised from individual animals and weighed. Wet weight of lung and thymus was corrected for 100 g of initial body weight. The percentage increase in lung weight caused by Sephadex and its inhibitions by the compounds, were calculated. The percentage inhibitions of thymus compared to vehicle control group were also calculated.

The nature of series [4]: in vivo. The settings on record: SD, rat, thymus, other: intratracheal. On the procedure: as §1
In series [5] the test system is croton oil induced ear edema. The experiment in a line: Croton oil ear edema. The series is classed as in vivo, Mice (male, CD-1). The note with it: inhibition at 1.6 μg, applied to ear, mice. On the procedure: Mice (male, CD-1) were made into different groups. Test compounds were dissolved in pyridine-water-acetone (4:2:14) solution […] of compound or vehicle solution was applied to the left ear of the mice. The right ear of each mouse was applied simultaneously with 10 μl of pyridine:water:acetone (4:2:14) solution. After 2 hrs of compound or vehicle application, 10 μl of croton oil solution was applied to the left ear of all animals. After 6 hr of croton oil treatment the animals were sacrificed; ears were excised and weighed separately.

The test system of series [6] is cotton pellet induced granuloma. As to the kind of experiment: Cotton pellet granuloma (compound impregnated in pellet). Format: in vivo. The note with it: dose 1000 mcg per pellet, SD rats. On the procedure:
SD rats were used for assessing anti-inflammatory activity of test compound using cotton pellet granuloma method. Sterilized cotton pellets weighing 20 mg were prepared. Test compounds were dissolved in acetone so as to get the required quantity for each cotton pellet in 500 μl. Different pellets were impregnated with 500 μl of acetone to contain required quantity of test compounds and allowed to dry. Vehicle control pellets were impregnated with 500 μl acetone. Rats were made into different groups. Two cotton pellets were surgically implanted into the scapular region of each rat. On sixth day of such implantation, pellets along with granuloma were taken out. Thymus gland was also separated from each animal and weighed. The pellets with granuloma were dried for 20 hrs at 60° C. and weighed. Mean weights of dry granuloma and thymus, body weight gain/100 g body weights were calculated.

In series [7] the test system is cotton pellet granuloma (blank cotton pellet). The experiment in a line: Assessment of systemic activity by i.v. route (blank cotton pellet granuloma). The note with it: dose 1600 mcg (for 3 days), male SD rats. Format: in vivo. On the procedure: For assessing systemic side effect on i.v. administration, cotton pellet granuloma assay (blank cotton pellet) in male SD rats was undertaken. Sterilized cotton pellets weighing 20 mg were surgically implanted into the scapular region on both sides. Starting from next day of implantation, compounds dissolved in Pharmasove (Pharmasolve 66.67% in saline) or vehicle were administered intravenously at 1.6 mg/kg dose for 3 successive days. On fifth day of implantation, pellets along with granuloma were taken out. The thymus gland was also separated from each animal and weighed. The pellets with granuloma were dried for 20 hrs at 60° C. and weighed. Mean weights of dry granuloma and thymus and body weight gain/100 g body weights were compared with vehicle control groups.

Where [8] appears, read: dose 3000 mcg/kg intratracheally, SD rat.

Molecules are shown by their SMILES. Marks after values point to notes of the source that are not given here.

Take `CCCC1O[C@@H]2C[C@H]3[C@@H]4CCC5=CC(=O)C=C[C@]5(C)[C@H]4[C@@H](O)C[C@]3(C)[C@]2(C(=O)CO)O1` (stereo partly drawn) [Budesonide, (11β,16α)-16,17-[Butylidenebis(oxy)]-11,21-dihydroxypregna-1,4-diene-3,20-dione]: in series [1] (% inhibition at 10 nM), the inhibition at 0.01 µM was 85%. In series [2], the “% Inhibition of thymus” value was 65.02% and the Glycogen content is on record as 552.77 mg/100 g liver. Also, the ED50 in series [3] (Rattus norvegicus, inhaled or nasal, read-out: ED50 Lung edema) amounted to 0.101 mg/kg. Besides, in series [3] (setting [8]), the “Mean % inhibition Lung edema” value is given as 119.38% and the “Mean % inhibition Thymus” value worked out at 67.08%. The same compound came in with an ED50 at 24 h in series [4] of 0.68 mg/kg.
`C[C@@H]1C[C@H]2[C@@H]3CCC4=CC(=O)C=C[C@]4(C)[C@@]3(F)[C@@H](O)C[C@]2(C)[C@@]1(O)C(=O)CO` [Dexamethasone, 16α-methyl-9α-fluoro-1,4-pregnadiene-11β,17α,21-triol-3,20-dione, reference compound]: in series [5], the “Mean % Inhibition (croton oil ear edema)” value is on record as 50.05^a %. In addition, in series [6], the “Mean % Inhibition of Granuloma” value is recorded as 44.73% and the “Thymus wt. (% Decrease)” value was determined as 68.66%.
As for `CCC(=O)O[C@]1(C(=O)SCF)[C@H](C)C[C@H]2[C@@H]3C[C@H](F)C4=CC(=O)C=C[C@]4(C)[C@@]3(F)[C@@H](O)C[C@@]21C` [Fluticasone propionate, (S)-fluoromethyl 6α,9α-difluoro-11β-hydroxy-16α-methyl-17α-propionyloxy-3-oxoandrosta-1,4-diene-17β-carbothioate, reference compound], the “Mean % Inhibition (croton oil ear edema)” value in series [5] is reported as 81.09^a %. Besides, in series [6], the “Mean % Inhibition of Granuloma” value amounted to 75.03% and the “Thymus wt. (% Decrease)” value is 82.36%. In series [2], the “% Inhibition of thymus” value is recorded as 70.17% and the Glycogen content turned out to be 1514.65 mg/100 g liver. Moreover, in series [7], the “Mean Inhibition of Granuloma (%)” value is 55.62% and the “Mean Thymus wt. Decrease (%)” value is 75.71%. In addition, the “ED50 Lung edema” value in series [3] (i.t., Sephadex lung edema model in SD rat) worked out at 0.086 mg/kg. In series [3] (i.t., thymus involution, Sephadex lung edema model in SD rat), the “ED50 Thymus” value is 0.36 mg/kg.
In turn, `CCC(=O)O[C@]1(C(=O)SOCF)[C@H](C)CC2C3C[C@H](F)C4=CC(=O)C=C[C@]4(C)[C@@]3(F)[C@@H](O)C[C@@]21C` (stereo partly drawn) [IC.3, 6α,9α-Difluoro-11β-hydroxy-16α-methyl-3-oxo-17α-propionyloxyandrosta-1,4-diene-17β-carbonylsulfenic acid fluoromethyl ester] displayed an inhibition at 0.1 µM in series [1] of 72%. The Glycogen content in series [2] is recorded as −11.34 mg/100 g liver. In addition, the “Mean Inhibition of Granuloma (%)” value in series [7] is on record as 12.09%.
Take `C[C@@H]1CC2C3C[C@H](F)C4=CC(=O)C=C[C@]4(C)[C@@]3(F)[C@@H](O)C[C@]2(C)[C@@]1(OC(=O)c1ccco1)C(=O)SOCc1ccc(F)cc1` (stereo partly drawn) [IC.5, 6α,9α-Difluoro-17α-[(2-furanylcarbonyl)oxy]-11β-hydroxy-16α-methyl-3-oxoandrosta-1,4-diene-17β-carbonylsulfenic acid (4-fluorophenyl)methyl ester]: in series [1], 0.1 µM produced 75% inhibition. In addition, the “Mean Inhibition of Granuloma (%)” value in series [7] was −22.20%.
